In patent publication US5698521A, “Native calcitonin mimetics” (ZymoGenetics, Inc., priority 1995, dated 1997):
Values belong to the molecule of their own block, whether it stands above or below them. Where a SMILES comes first, the peptide text is derived from it. [ ]: non-standard residue; d: D form. ξ: configuration not given here. ξPro(4ξ-Me) = CC1CNC(C(=O)O)C1; ξIva = CCC(C)(N)C(=O)O; Aib = CC(C)(N)C(=O)O

Assays:
[1] = system: osteoclasts in mouse calvariae; experiment: Calvaria histology (TRAP-stained osteoclast number and size); assay type: cell-based
Description: To confirm the findings in the calvarial bone resorption assay employing calcium release from culture mouse calvariae, selected bones were fixed in 10% neutral buffered formalin and demineralized in 5% formic acid with 5% formalin. The bones were dehydrated through an ascending series of ethanol concentrations, infiltrated in glycol methacrylate, and embedded using a JB-4 embedding kit (PolySciences, Warrington, Pa.) (Liu and Kalu, J. Bone Miner. Res., 5:973-82, 1990). Cross sections of calvariae cut at 5 μm were obtained and stained for tartrate-resistant acid phosphatase (TRAP) activity and counterstained with methyl green and thionin for cell morphology (Liu and Kalu, J. Bone. Miner. Res. 1990, supra). Osteoclasts were identified by TRAP stain, multinucleation, large cell size, and irregular cell shape. The number of osteoclasts were counted from endocranial and ectocranial bone surfaces and expressed as number/mm perimeter. The size of all the osteoclasts counted was also measured using a Bone Morphometry program (Lui and Kalu, supra.; Bain et al., J. Done Miner. Res. 8:435-42, 1993). […] This PTH-induced increase was suppressed by treatment with human calcitonin.
Calcitonin mimetic compounds were evaluated in a similar fashion for their ability to suppress PTH-induced increases in osteoclast number and size. Cell toxicity (or death) was also evaluated morphologically. […]

[2] = Solubility of isolated powders in organic solvents; assay type: physicochemical
[3] = system: PTH-Induced Bone Resorption in Mouse Calvariae; experiment: Calvarial assay: PTH-induced bone resorption (calcium release); assay type: cell-based; conditions: 1 nM PTH 1-34, 72 hours, read-out: Inhibition of Ca++ Release EC50
Description: Calvaria from 4-day old neonatal CD-1 mice (pregnant mice received from Charles River Laboratories, Wilmington, Mass.) were trimmed with fine-tipped scissors to leave the parietal regions, including the sagittal suture. These trimmed bones were placed singly per well into 6-well cell culture cluster plates (Costar, Pleasanton, Calif.) with 1 ml/well of growth medium (DMEM, BioWhittaker, Walkersville, Md.) with 4.5 g/L glucose, 0.29 mg/ml L-glutamine, 1 mM sodium pyruvate, 15% heat-inactivated horse serum, and antibiotics (penicillin-G 50 μg/ml, streptomycin 50 μg/ml, and neomycin 100 μg/ml), and rocked gently (RedRocker™, model PR50-115V, Hoefer, San Francisco, Calif.) at 37° C. in a 5% CO2 humidified incubator for 24 hours preincubation.
Following incubation, medium was removed and replaced with 1.5 ml/well of growth medium containing 1 nM parathyroid hormone (PTH) 1-34 (Sigma) to stimulate bone resorption. For evaluation of the ability of calcitonin mimetics to inhibit PTH induced bone resorption, mimetic compounds in DMSO were added to the growth medium at concentrations ranging from 1-240 μg/ml (final assay concentration of DMSO less than or equal to 1%). In each experiment human calcitonin (0.02-20 nM, 0.2-2 nM preferred) was added to PTH treated bones as a positive control. […]

[4] = target: T1, human calcitonin receptor (Homo sapiens, UniProt P30988); experiment: CRE-luciferase induction in Hollex-1 cells (BHK 570 expressing human calcitonin receptor and CRE-luciferase reporter); assay type: cell-based; conditions: BHK 570 cells expressing human calcitonin receptor and CRE-luciferase reporter (Hollex-1)
T1 construct: expressed in transfected cells; host or cells: BHK 570 clone KZ10-20-48 (CRE-luciferase), clone Hollex-1
T1 sequence (P30988 25-474): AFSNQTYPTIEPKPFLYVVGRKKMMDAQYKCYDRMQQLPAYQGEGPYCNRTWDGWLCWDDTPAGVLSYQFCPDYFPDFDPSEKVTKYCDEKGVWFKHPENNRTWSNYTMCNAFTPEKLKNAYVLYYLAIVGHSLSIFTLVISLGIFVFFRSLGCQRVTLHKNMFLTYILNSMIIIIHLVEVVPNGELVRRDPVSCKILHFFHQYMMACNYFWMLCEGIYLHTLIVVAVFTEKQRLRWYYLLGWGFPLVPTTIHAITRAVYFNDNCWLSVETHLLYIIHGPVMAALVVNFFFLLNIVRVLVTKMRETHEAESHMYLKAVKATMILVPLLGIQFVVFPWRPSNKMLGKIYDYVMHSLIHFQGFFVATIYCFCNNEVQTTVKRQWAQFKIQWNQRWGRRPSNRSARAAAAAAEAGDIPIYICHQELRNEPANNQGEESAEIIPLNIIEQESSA

[5] = system: KZ10-20-48/Zem 228 cells (calcitonin receptor negative); experiment: CRE-luciferase induction in calcitonin receptor negative line KZ10-20-48/Zem 228 (specificity control); assay type: cell-based, baby hamster
[6] = system: KZ10-20-48 cells (CRE-luciferase reporter); experiment: CRE-luciferase induction in parent reporter line BHK/KZ10-20-48; assay type: cell-based, baby hamster; conditions: clone KZ10-20-48, 25 mM forskolin, 4 hours; range 15-25 fold
Description: Stable transfectants were selected by growth in Dulbecco's modified Eagle's medium (DMEM) supplemented with 10% heat inactivated fetal bovine serum (HI-FBS), 2 mM L-glutamine and 1 mM sodium pyruvate containing 250 nM methotrexate (MTX) for 10-14 days. Clones were isolated, grown to confluence in opaque white microtiter plates (Dynatech, Chantilly, Va.), then treated with […], which elevates cellular cAMP through direct activation of adenylate cyclase (Berkowitz and Gilman, Proc. Nat. Acad. Sci. USA 87:5258-62, 1990) for 4 hours at 37° C., 5% CO2 . Following incubation, cells were lysed and assayed for luciferase induction in a Labsystems Luminoskan microtiter luminometer (Labsystems Inc., Morton Grove, Ill.) using a Promega luciferase kit (El500, Promega Corp., Madison, Wis.), as described below.

human glucagon receptor [7] = target: T2, human glucagon receptor (Homo sapiens, UniProt P47871); experiment: cell-based
T2 sequence (P47871 26-477): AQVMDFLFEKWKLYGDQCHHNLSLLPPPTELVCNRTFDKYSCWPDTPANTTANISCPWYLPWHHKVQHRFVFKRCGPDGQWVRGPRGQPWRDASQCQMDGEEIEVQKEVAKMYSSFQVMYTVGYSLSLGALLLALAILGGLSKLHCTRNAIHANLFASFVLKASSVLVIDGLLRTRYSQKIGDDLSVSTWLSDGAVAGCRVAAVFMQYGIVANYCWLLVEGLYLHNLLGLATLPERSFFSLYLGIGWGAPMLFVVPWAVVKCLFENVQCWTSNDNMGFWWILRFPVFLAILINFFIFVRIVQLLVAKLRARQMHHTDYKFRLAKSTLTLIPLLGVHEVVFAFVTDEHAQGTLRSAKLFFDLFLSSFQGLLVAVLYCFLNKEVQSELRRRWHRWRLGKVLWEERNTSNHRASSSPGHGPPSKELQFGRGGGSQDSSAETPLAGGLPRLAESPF

[8] = target: hamster calcitonin receptor (Mesocricetus auratus, UniProt A0A3Q0D7K7); experiment: CRE-luciferase induction in Boris/KZ10-3 cells (calcitonin receptor positive)
Sequence of hamster calcitonin receptor (A0A3Q0D7K7 entry or part of it): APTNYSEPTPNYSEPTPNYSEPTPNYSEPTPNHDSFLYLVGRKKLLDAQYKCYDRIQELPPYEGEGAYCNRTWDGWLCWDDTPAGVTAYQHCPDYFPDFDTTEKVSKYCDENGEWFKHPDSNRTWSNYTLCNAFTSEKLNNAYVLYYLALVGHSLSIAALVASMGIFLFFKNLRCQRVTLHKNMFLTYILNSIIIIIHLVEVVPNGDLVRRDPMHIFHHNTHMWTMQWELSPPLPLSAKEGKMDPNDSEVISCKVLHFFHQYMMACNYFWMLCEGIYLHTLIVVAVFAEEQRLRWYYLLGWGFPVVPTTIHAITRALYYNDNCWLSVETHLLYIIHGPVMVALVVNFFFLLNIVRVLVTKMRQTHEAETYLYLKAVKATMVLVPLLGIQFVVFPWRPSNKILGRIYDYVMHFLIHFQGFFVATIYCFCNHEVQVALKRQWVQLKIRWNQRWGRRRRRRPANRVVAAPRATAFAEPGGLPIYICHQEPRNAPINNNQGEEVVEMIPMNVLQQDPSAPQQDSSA

human glucagon receptor [9] = target: T2, human glucagon receptor; conditions: KZ10-20-48/pLJ6-4-25 clone
[10] = system: human calcitonin receptor; experiment: CRE-luciferase induction in Hollex-1 cells (BHK 570 expressing human calcitonin receptor and CRE-luciferase reporter); assay type: cell-based; conditions: Hollex-1 clone; read-out: forskolin EC50, CRE-luciferase induction
[11] = in acetonitrile, ethyl acetate, and chloroform
[12] = in methanol, ethanol, n-butanol and dimethyl sulfoxide

- solubility [2, 11]: slightly soluble
- solubility ([2]; in hexane): insoluble
- solubility [2, 12]: readily soluble
- EC50 [3]: 33.2 µM
- EC50 [4]: 0.506 µM
Molecule: CC[C@H](C)[C@H](NC(=O)C(C)(C)NC(=O)[C@H](CCC(N)=O)NC(=O)C(C)(CC)NC(=O)[C@H](Cc1c[nH]c2ccccc12)NC(C)=O)C(=O)N[C@H](C(=O)NC(C)(C)C(=O)N[C@@H](CC(C)C)C(=O)NC(C)(C)C(=O)N1CCC[C@H]1C(=O)N[C@@H](CCC(N)=O)C(=O)NC(C)(C)C(=O)N1CCC[C@H]1C(=O)NC(C)(C)C(=O)N1CC(C)CC1C(=O)N[C@@H](Cc1ccccc1)C(=O)NCC(=O)O)[C@@H](C)O (stereo partly drawn) [ZG 2807 A, Acetyl-Trp-Xaal-Gln-2-aminoisobutyric acid (Aib)-Ile-Thr-Aib-Leu-Aib-Pro-Gln-Aib-Pro-Aib-Xaa2-Phe-Gly] (Ac-W[ξIva]Q[Aib]IT[Aib]L[Aib]PQ[Aib]P[Aib][ξPro(4ξ-Me)]FG-OH)
- Histology ([1]; PTH-treated mouse calvariae, the cell wraps over two lines: 'Inhibition of osteoclast size'): Inhibition of osteoclast

- solubility [2, 11]: slightly soluble
- solubility ([2]; in hexane): insoluble
- solubility [2, 12]: readily soluble
- EC50 [4]: 0.525 µM
Molecule: CC[C@H](C)[C@H](NC(=O)C(C)(C)NC(=O)[C@H](CCC(N)=O)NC(=O)C(C)(CC)NC(=O)[C@H](Cc1c[nH]c2ccccc12)NC(C)=O)C(=O)N[C@H](C(=O)NC(C)(C)C(=O)N[C@@H](CC(C)C)C(=O)NC(C)(C)C(=O)N1CCC[C@H]1C(=O)N[C@@H](CCC(N)=O)C(=O)NC(C)(C)C(=O)N1CCC[C@H]1C(=O)NC(C)(C)C(=O)N1CC(C)CC1C(=O)N[C@@H](Cc1ccccc1)C(=O)O)[C@@H](C)O (stereo partly drawn) [ZG 2807 B, Acetyl-Trp-Xaal-Gln-Aib-Ile-Thr-Aib-Leu-Aib-Pro-Gln-Aib-Pro-Aib-Xaa2-Phe] (Ac-W[ξIva]Q[Aib]IT[Aib]L[Aib]PQ[Aib]P[Aib][ξPro(4ξ-Me)]F-OH)

Molecule: C=C[C@@]1(C)CC(=O)[C@]2(O)[C@@]3(C)[C@@H](O)CCC(C)(C)[C@@H]3[C@H](O)[C@H](OC(C)=O)[C@@]2(C)O1 [forskolin]
- EC50 ([5]; Mesocricetus auratus, range 0.5-1.5 μM): 0.6 µM
- induction of CRE-luciferase ([5]; range 20-35 fold): 30 fold
- induction of CRE-luciferase vs basal [6]: 20 fold
- EC50 (human glucagon receptor [7]): 2.1 µM
- EC50 [8]: 0.9 µM
- induction of luciferase ([8]; Boris/KZ10-3 clone): 25 fold
- induction of luciferase (human glucagon receptor [9]): 35 fold
- EC50 [10]: 1.2 µM

Molecule: parathyroid hormone (PTH) 1-34 (SVSEIQLMHNLGKHLNSMERVEWLRKKLQDVHNF; Parathyroid hormone; UniProt P01270 32-65, looked up, fragment) [PTH 1-34, stimulus of bone resorption in the calvarial assay, reference compound]
- number and size of osteoclasts (histomorphometry) ([1]; cultured mouse calvariae, calcitonin tested against the PTH-induced increase): increases in the number and size of osteoclasts
